Results: US9249125B2, “Pyrazole derivatives as p38 MAP inhibitors” (RESPIVERT LIMITED, priority 2012, dated 2016)

Key:
[1] = molecular target: p38 MAPKγ (Homo sapiens (Human), UniProt P53778); assay: Enzyme binding assay (Kinomescan) p38 MAPKγ; details: read-out: % Inhibition for kinase binding at 500 nM p38 MAPKγ
Procedure: (§1) These assays were conducted by DiscoverX (formerly Ambit; San Diego, Calif.). The percentage inhibition produced by incubation with a test compound is calculated relative to the non-inhibited control.

[2] = molecular target: GSK3α (Homo sapiens (Human), UniProt P49840); assay: Enzyme binding assay (Kinomescan) GSK3α; details: read-out: % Inhibition for kinase binding at 500 nM GSK3α
Sequence of GSK3α (P49840 whole entry): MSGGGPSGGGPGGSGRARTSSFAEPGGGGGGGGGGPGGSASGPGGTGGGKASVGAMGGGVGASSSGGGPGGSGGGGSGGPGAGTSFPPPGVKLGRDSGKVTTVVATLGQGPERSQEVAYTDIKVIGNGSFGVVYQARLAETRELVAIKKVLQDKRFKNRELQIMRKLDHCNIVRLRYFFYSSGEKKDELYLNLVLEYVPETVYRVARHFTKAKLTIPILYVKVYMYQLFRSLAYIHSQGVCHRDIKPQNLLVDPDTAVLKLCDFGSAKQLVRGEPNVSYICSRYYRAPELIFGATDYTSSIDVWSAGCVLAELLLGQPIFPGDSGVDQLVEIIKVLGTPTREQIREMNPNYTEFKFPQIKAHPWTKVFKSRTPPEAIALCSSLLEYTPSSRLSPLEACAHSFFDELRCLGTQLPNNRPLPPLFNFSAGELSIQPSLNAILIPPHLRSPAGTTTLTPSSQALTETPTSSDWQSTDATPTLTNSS
Procedure: (§2) The kinase enzyme binding activities of compounds disclosed herein were determined using a proprietary assay which measures active site-directed competition binding to an immobilized ligand (Fabian, M. A. et al., Nature Biotechnol., 2005, 23:329-336). These assays were conducted by DiscoverX (formerly Ambit; San Diego, Calif.). The percentage inhibition produced by incubation with a test compound is calculated relative to the non-inhibited control.

[3] = molecular target: Syk (Homo sapiens (Human), UniProt P43405); assay: Enzyme binding assay (Kinomescan) Syk; details: read-out: % Inhibition for kinase binding at 500 nM Syk
Procedure: as §2

[4] = molecular target: B-Raf (Homo sapiens (Human), UniProt P15056); assay: Enzyme binding assay (Kinomescan) B-Raf; details: read-out: % Inhibition for kinase binding at 500 nM B-Raf
Sequence of B-Raf (P15056 whole entry): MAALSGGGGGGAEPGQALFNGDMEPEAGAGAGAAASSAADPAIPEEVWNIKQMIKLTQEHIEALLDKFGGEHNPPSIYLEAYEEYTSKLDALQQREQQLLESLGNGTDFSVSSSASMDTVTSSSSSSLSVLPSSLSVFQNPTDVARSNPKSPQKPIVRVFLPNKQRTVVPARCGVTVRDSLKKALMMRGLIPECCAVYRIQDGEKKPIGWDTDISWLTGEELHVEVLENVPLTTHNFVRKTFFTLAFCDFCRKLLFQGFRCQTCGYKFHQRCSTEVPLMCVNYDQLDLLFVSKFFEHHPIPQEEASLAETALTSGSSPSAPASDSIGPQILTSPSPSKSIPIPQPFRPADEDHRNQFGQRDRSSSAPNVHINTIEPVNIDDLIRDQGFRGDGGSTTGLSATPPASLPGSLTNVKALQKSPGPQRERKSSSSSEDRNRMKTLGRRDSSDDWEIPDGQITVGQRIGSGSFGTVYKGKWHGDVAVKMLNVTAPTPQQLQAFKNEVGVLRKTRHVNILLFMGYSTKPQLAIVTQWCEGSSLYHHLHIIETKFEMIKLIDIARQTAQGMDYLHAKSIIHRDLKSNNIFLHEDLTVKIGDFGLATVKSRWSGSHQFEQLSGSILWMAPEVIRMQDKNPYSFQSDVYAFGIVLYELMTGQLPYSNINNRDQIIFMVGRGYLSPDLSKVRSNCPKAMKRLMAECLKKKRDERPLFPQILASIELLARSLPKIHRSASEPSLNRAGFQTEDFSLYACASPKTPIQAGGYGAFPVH
Procedure: as §1

[5] = molecular target: p38 MAPKα (Homo sapiens (Human), UniProt Q16539); assay: Enzyme binding assay (Kinomescan) p38 MAPKα; details: read-out: % Inhibition for kinase binding at 500 nM p38 MAPKα
Sequence of p38 MAPKα (Q16539 whole entry): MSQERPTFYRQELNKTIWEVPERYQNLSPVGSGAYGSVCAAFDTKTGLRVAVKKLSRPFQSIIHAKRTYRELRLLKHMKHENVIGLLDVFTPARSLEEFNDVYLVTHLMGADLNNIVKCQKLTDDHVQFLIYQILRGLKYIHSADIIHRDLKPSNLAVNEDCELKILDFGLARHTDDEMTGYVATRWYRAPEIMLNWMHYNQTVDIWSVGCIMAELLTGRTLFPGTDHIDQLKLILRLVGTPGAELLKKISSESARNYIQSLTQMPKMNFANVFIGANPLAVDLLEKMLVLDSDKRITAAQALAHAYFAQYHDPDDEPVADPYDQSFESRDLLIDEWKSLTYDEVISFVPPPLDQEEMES
Procedure: as §2

[6] = molecular target: HCK (Homo sapiens (Human), UniProt P08631); assay: Enzyme binding assay (Kinomescan) HCK; details: read-out: % Inhibition for kinase binding at 500 nM HCK
Sequence of HCK (P08631 22-526): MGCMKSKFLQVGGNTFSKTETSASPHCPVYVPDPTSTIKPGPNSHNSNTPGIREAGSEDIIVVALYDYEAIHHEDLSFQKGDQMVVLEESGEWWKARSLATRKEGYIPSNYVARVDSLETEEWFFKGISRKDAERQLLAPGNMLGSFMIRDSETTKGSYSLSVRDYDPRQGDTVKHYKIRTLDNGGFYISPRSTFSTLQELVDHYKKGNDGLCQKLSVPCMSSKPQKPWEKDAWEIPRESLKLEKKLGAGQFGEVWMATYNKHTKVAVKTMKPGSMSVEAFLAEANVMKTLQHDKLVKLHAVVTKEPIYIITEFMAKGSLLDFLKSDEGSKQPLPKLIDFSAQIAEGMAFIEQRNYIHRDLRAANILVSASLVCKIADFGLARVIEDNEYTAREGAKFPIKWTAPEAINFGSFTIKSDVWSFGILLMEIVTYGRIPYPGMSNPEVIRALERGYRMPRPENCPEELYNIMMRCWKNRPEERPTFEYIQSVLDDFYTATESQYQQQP
Procedure: as §2

Sequence of p38 MAPKγ (P53778 whole entry): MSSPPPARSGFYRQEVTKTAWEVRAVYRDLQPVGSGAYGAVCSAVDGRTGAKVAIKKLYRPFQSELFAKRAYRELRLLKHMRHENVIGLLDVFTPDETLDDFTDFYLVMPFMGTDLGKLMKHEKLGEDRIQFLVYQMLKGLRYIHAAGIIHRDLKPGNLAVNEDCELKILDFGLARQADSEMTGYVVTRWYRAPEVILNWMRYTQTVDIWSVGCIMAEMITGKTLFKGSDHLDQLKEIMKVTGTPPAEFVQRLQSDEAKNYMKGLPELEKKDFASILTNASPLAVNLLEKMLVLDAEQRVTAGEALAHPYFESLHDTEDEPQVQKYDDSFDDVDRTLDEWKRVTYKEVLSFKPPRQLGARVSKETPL

inhibition at 0.5 µM [1]: 52% | inhibition at 0.5 µM [2]: 31% | inhibition at 0.5 µM [3]: 100% | inhibition at 0.5 µM [4]: 0% | inhibition at 0.5 µM [5]: 66% | inhibition at 0.5 µM [6]: 100%
SMILES: CC(C)(C)c1cc(NC(=O)Nc2ccc(Oc3ccnc(Nc4ccc5[nH]ncc5c4)n3)c3ccccc23)n(-c2ccc(OCCN3CCOCC3)cc2)n1 [Example 12, 1-(4-((2-((1H-Indazol-5-yl)amino)pyrimidin-4-yl)oxy)naphthalen-1-yl)-3-(3-(tert-butyl)-1-(4-(2-morpholinoethoxy)phenyl)-1H-pyrazol-5-yl)urea]
